# Experimental data: PubChem BioAssay AID463204 (Broad Institute, 2010)
# Calls of active or inactive are those of the source.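 Rule for the calls: active = AC50 no more than ten times the top concentration tested, that is within one log above it; inconclusive = flat curve fit with activity between 30% and 70%, or invalid poor fit; inactive = AC50 beyond ten times the top tested dose.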
# System: S. cerevisiae Mot1-301 ts growth rescue, BacTiter-Glo ATP luminescence
# Experiment: restored Mot1-301 yeast growth at 38.5C – whole organism, S. cerevisiae, Mot1-301 ts mutant, luminescence, dose retest, SUMOylation pathway inhibitor project, confirmation (AID 463204);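 note: growth at restrictive 38.5 degrees C of Mot1-301 OY566 strain; actives raise luminescence by restoring growth of the ts mutant at high temperature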
row,Structure (SMILES),AC50
1,COC(=O)C1=C(C)N(Cc2ccccc2)C(=S)N[C@H]1c1cccc(F)c1,> 42 µM (inactive)
2,CCOC(=O)c1c(/N=C/C2C(=O)CCCC2=O)sc2c1CCCC2,> 42 µM (inactive)
3,O=C(Cn1nc(C(F)(F)F)c2c1CCCC2)N1CCOCC1,> 42 µM (inactive)
4,Cc1cc(Oc2cc(NN3CCCCC3)c([N+](=O)[O-])cc2[N+](=O)[O-])ccc1[N+](=O)[O-],> 42 µM (inactive)
5,COc1ccc(C)cc1NC(=O)C12CCC(C)(C(=O)O1)C2(C)C (stereo unspecified),> 42 µM (inactive)
6,CC1=Nc2ccccc2/C1=C\c1nc(-c2ccccc2)oc1O,> 42 µM (inactive)
7,COc1ccc2c(c1)OC[C@H]1[C@H]2N2C(=O)c3cc(C)ccc3NC(=O)[C@@]2(C)[C@H]1c1ccccc1,1.39 µM
8,CCCc1nc(NCc2ccccc2)c(C#N)c2c1CCCC2,> 42 µM (inactive)
9,O=C(Nc1ccc(S(=O)(=O)NC2=NCCCCC2)cc1)c1ccc(C(F)(F)F)cc1,> 42 µM (inactive)
10,CN(C)CCNC(=O)c1scc2c1CCCC2,29.2 µM
11,S=C(Nc1ccccc1Cl)N1CCOCC1,> 42 µM (inactive)
12,O=[N+]([O-])c1ccc(N/N=C/c2cccc(O)c2)cc1,29.4 µM
13,O=C1CSC(c2ccc(F)c(F)c2)N1c1ccccc1F (stereo unspecified),> 42 µM (inactive)
14,O=C(CP(=O)(c1ccccc1)c1ccccc1)N1CCOCC1,> 42 µM (inactive)
15,CC(C)=CC(=O)N1CCCC(N2CCN(c3ccc(F)cc3)CC2)C1 (stereo unspecified),> 42 µM (inactive)
16,O=C(CC1(CC2=NS(=O)(=O)c3ccccc3N2)CCCC1)NCCc1ccccc1,> 42 µM (inactive)
17,Cc1ccc(-n2c(C)cc(/C=N/NC(=O)c3ccncc3)c2C)cc1C,> 42 µM (inactive)
18,COc1ccc(CN(C)S(=O)(=O)c2nnc(NC(=O)c3ccc(C)cc3)s2)cc1OC,> 42 µM (inactive)
19,Nc1nnc(COc2ccc(Br)cc2Br)s1,> 42 µM (inactive)
20,Nc1cccc2c1C(=O)N(c1ccccc1)C2=O,> 42 µM (inactive)
21,CCCCNS(=O)(=O)c1ccc(OC)cc1,> 42 µM (inactive)
22,COc1ccc(C2=Nn3c(nnc3-c3ccco3)SC2)cc1,> 42 µM (inactive)
23,Cc1ccc(/C(N)=N/OC(=O)/C=C/c2ccccc2)cc1,> 42 µM (inactive)
24,COc1ccc(Cl)cc1N(C(=O)c1ccco1)C(C(=O)NC1CCCC1)c1ccncc1 (stereo unspecified),> 42 µM (inactive)
25,CCOc1ccc(/C=N/NC(=O)c2ccc(CSc3nc4ccccc4[nH]3)cc2)cc1,> 42 µM (inactive)
26,O=C(c1ccccc1F)N1CCN=C1SCc1cccnc1,> 42 µM (inactive)

row,Structure (SMILES),AC50
1,COc1ccc(-n2c(C)cc(C(=O)CN3C(=O)NC4(CCCc5sccc54)C3=O)c2C)cc1 (stereo unspecified),> 42 µM (inactive)
2,Cn1c(=O)[nH]c(=O)c2c1nc(Sc1ccccc1)n2CCc1ccccc1,> 42 µM (inactive)
3,CCCC(=O)N(CCN1CCOCC1)c1nc2ccc(OCC)cc2s1,> 42 µM (inactive)
4,CC(OC(=O)c1cc(S(=O)(=O)N2CCOCC2)ccc1F)C(=O)NCc1ccc2c(c1)OCO2 (stereo unspecified),> 42 µM (inactive)
5,Oc1ccc(C2=CSC3=NCCN23)cc1O,> 42 µM (inactive)
6,O=C(c1cc(-c2ccc(Cl)cc2)n(-c2ccc(Cl)cc2)n1)N1CCOCC1,> 42 µM (inactive)
7,CCn1c(SC(=O)NC2CCCCC2)nnc1-c1cccs1,11.6 µM
8,NC(=O)CN1CCOCCN(CC(N)=O)CCOCC1,> 42 µM (inactive)
9,CCOc1ccc(-c2nc(C#N)c(N3CCOCC3)o2)cc1,> 42 µM (inactive)
10,COCCCNC(=O)c1cc2cc([N+](=O)[O-])cc(OC)c2oc1=O,> 42 µM (inactive)
11,O=C(CCSc1nnc(-c2ccncc2)o1)Nc1ccc(Cl)cc1,> 42 µM (inactive)
12,COc1ccccc1NC(=O)c1nn(C)cc1Br,> 42 µM (inactive)
13,O=C(O)c1cccc(NC(=O)c2cccc(S(=O)(=O)Nc3cccc([N+](=O)[O-])c3)c2)c1,> 42 µM (inactive)
14,COc1ccc(CCNC(=O)Cn2nnc(-c3ccc(N4CCOCC4)cc3)n2)cc1OC,> 42 µM (inactive)
15,COc1cc(SC)ccc1C(=O)N1CCCCCC1,> 42 µM (inactive)
16,O=C(c1ccc(CS(=O)(=O)c2ccccc2)o1)N1CCOCC1,> 42 µM (inactive)
17,Cc1sc2ncnc(Nc3ccccc3)c2c1C,29.7 µM
18,Cc1cc(C)cc(NC(=O)CS(=O)(=O)c2ccccc2)c1,> 42 µM (inactive)
19,CNC(=O)NNC(=O)c1csc(-c2ccc(C(F)(F)F)cc2Cl)n1,> 42 µM (inactive)
20,COc1ccccc1CCNC(=O)/C(=C/c1cccnc1)NC(=O)c1ccccc1,> 42 µM (inactive)
21,CCOc1ccc(NC(=O)CNc2ccc(C)cc2Cl)cc1,> 42 µM (inactive)
22,S=C(c1ccc(N2CCOCC2)cc1)N1CCCCC1,> 42 µM (inactive)
23,O=C(O)CCC(=O)Nc1cccc(C(=O)Nc2ccc(Br)cc2)c1,> 42 µM (inactive)
24,CC1(C)C2CC=C(/C=N/NC(=S)Nc3cccnc3)C1C2 (stereo unspecified),> 42 µM (inactive)
25,CCNC(=O)/C(C#N)=C/c1c(N2CCCCCC2)nc2ccccn2c1=O,> 42 µM (inactive)
26,O=C(Nc1ccsc1C(=O)O)c1cccc(C(F)(F)F)c1,> 42 µM (inactive)

row,Structure (SMILES),AC50
1,CCc1ccc(-n2c(Cc3ccccc3)n[nH]c2=S)cc1,> 42 µM (inactive)
2,CCCCOc1ccc(CSC(=N)N)cc1Cl,> 42 µM (inactive)
3,Cc1cc(C)nc(SCC2COc3ccccc3O2)n1 (stereo unspecified),> 42 µM (inactive)
4,COc1cc(C)ccc1OCCCOc1ccccc1Br,> 42 µM (inactive)
5,COc1ccc(C(=O)N2CCN(c3ccc(NC(=O)c4cccnc4)cc3)CC2)cc1,> 42 µM (inactive)
6,Cc1cc(=O)oc(C)c1C(=O)Nc1ccc(Cl)cn1,> 42 µM (inactive)
7,COc1ccc(CN2CCNC(=O)C2CC(=O)NCc2cn3ccc(C)cc3n2)c(OC)c1 (stereo unspecified),> 42 µM (inactive)
8,Cc1nn(C)cc1S(=O)(=O)Nc1ncccn1,> 42 µM (inactive)
9,CCN(CC)c1ccc2c(C)c(CN3CCOCC3)c(=O)oc2c1,> 42 µM (inactive)
10,Cn1cccc1CC(=O)N/N=C/c1cccc([N+](=O)[O-])c1,> 42 µM (inactive)
11,CCOc1ccc(NC(=O)C2CC(=O)N3CCCN=C3S2)cc1 (stereo unspecified),> 42 µM (inactive)
12,CCOc1ccccc1N(CC(=O)Nc1ccccc1C(=O)N1CCCC1)S(C)(=O)=O,> 42 µM (inactive)
13,COC(=O)c1ccc(NC(=O)CCN2CCN(c3ccccc3)CC2)cc1,> 42 µM (inactive)
14,Cc1cc(C)n(-c2nc3ccccc3nc2N2CCN(C(=O)c3ccccc3)CC2)n1,> 42 µM (inactive)
15,Oc1cccc(/C=N/N2CCN(c3ccccn3)CC2)c1,> 21 µM (inactive)
16,COc1cccc(N2CCN(C3CCCC(C)C3)CC2)c1 (stereo unspecified),> 42 µM (inactive)
17,COc1ccc(OC)c(Cc2nnc(CCC(=O)NCc3ccsc3)o2)c1,> 42 µM (inactive)
18,C=CCSC1=C(C#N)C(c2ccc(C(C)C)cc2)CC(=O)N1 (stereo unspecified),8.36 µM
19,CCN(CC)c1ccc(N=Cc2c(O)n(Cc3ccccc3)c(=O)[nH]c2=O)cc1,> 42 µM (inactive)
20,COc1cccc(C(=O)N2CCN(S(=O)(=O)Cc3ccccc3)CC2)c1OC,> 42 µM (inactive)
21,CC(C)[N+]1(C)[C@@H]2CC[C@@H]1CC(OC(=O)C(CO)c1ccccc1)C2 (stereo partly specified),> 42 µM (inactive)
22,CCC(C)[C@H](N)c1nnc(SCC(=O)Nc2cccc(Cl)c2)o1 (stereo partly specified),> 42 µM (inactive)
23,Cc1cc(NC(=O)CC2CCCC2)ccc1Br,> 42 µM (inactive)
24,CCOC(=O)N1CCN(C(=O)c2ccc(CS(=O)(=O)c3c(Cl)cccc3Cl)o2)CC1,> 42 µM (inactive)
25,COc1ccc(-n2c(-c3ccccc3)nc3ccccc3c2=O)cc1,> 42 µM (inactive)
26,O=C(Nc1nc2ccccc2s1)c1cccc(S(=O)(=O)N2CCc3ccccc32)c1,> 42 µM (inactive)

row,Structure (SMILES),AC50
1,CC(C)(C)Cc1nc(-c2ccccn2)no1,> 42 µM (inactive)
2,CCC1C(c2ccccc2)NC(c2ccccc2)CC1(O)c1ccc(F)cc1 (stereo unspecified),> 42 µM (inactive)
3,Cc1nc2sc(C(c3ccco3)N3CCOCC3)c(O)n2n1 (stereo unspecified),> 42 µM (inactive)
4,CC1(OC(=O)C2CCCC2)C(=O)C=C2C=C(c3ccsc3)OC=C2C1=O (stereo unspecified),> 42 µM (inactive)
5,CC1CCCC(C)N1CCCNC(=O)c1csc2c1CCCCC2 (stereo unspecified),> 42 µM (inactive)
6,Cc1ccc(N2C(=O)c3cccc4c(N5CCN(C)CC5)ccc(c34)C2=O)c2cccnc12,> 42 µM (inactive)
7,CCOc1ccc(CCNC(=O)COC(=O)COc2ccc(C(C)=O)cc2)cc1OCC,> 42 µM (inactive)
8,CN(C)c1ccc(C(CNS(=O)(=O)c2ccc([N+](=O)[O-])cc2)N2CCOCC2)cc1 (stereo unspecified),> 42 µM (inactive)
9,O=C(O)CCc1ccc(-c2cccs2)n1NC(=O)c1cccs1,> 42 µM (inactive)
10,CCN1C(=NCC(C)C)N[C@@H](c2cccc(C(F)(F)F)c2)C(C(=O)OC)=C1C,> 42 µM (inactive)
11,O=C(C1CCC(CNc2c(N3CCCCC3)c(=O)c2=O)CC1)N1CCN(C2CCCCC2)CC1 (stereo unspecified),> 42 µM (inactive)
12,CCN1C(=O)N(C)[C@@H](c2ccccc2)C(C(=O)OC)=C1C,> 42 µM (inactive)
13,O=C(COC(=O)[C@@H]1CC(O)CN1S(=O)(=O)c1ccccc1[N+](=O)[O-])Nc1ccc2ccccc2c1 (stereo partly specified),> 42 µM (inactive)
14,CCOC(=O)c1sc(N/N=C/c2ccc(N(C)C)cc2)nc1C,> 42 µM (inactive)
15,COc1ccccc1CNCc1cc(OC)c(OC)c(OC)c1,> 42 µM (inactive)
16,CCOc1ccc(C(=O)Nc2ccc(N3CCN(C)CC3)cc2)cc1[N+](=O)[O-],> 42 µM (inactive)
17,COc1cc(OC)cc(OC(=O)c2ccc3c(=O)n4c(nc3c2)CCC4)c1,> 42 µM (inactive)
18,CSc1nsc(SCC(=O)Nc2cccc(C(=O)O)c2)n1,> 42 µM (inactive)
19,Cc1ccc(O)c(C)c1,> 42 µM (inactive)
20,CCC(c1nnnn1C1CCCC1)N1CCN(c2cccc(OC)c2)CC1 (stereo unspecified),> 21 µM (inactive)
21,Cc1ccc(NS(=O)(=O)c2ccc(NC(=O)C3CCCO3)cc2)cc1 (stereo unspecified),> 42 µM (inactive)
22,Cc1cccc(OCCC(=O)Nc2ccc(F)c(F)c2)c1,> 42 µM (inactive)
23,CC(C)(C)c1ccc(CN(Cc2ccccc2)C(c2ccccn2)c2nnnn2C(C)(C)C)cc1 (stereo unspecified),> 42 µM (inactive)
